Results on four molecules are retold here after article PMC7100886 (Cell Cycle, 2020).

Ends that are not written are not given here. * marks the point of attachment. Biotin = O=C1N[C@H]2[C@H](CS[C@H]2CCCCC(=O)*)N1

Usually Kd stands for a measure of binding affinity in units of concentration.

The target in test [1] is c-Jun (Homo sapiens, UniProt P05412). To be noted: cited from earlier work.
Test [2] has as its system BT-549 cells. To be noted: RAD51 inhibitor; cited from earlier work.
The target in test [3] is His-tagged recombinant c-Jun (UniProt P05412 1-331). In words: BLI. (In general: BLI is a label-free optical method that tracks binding on a fibre tip over time.)
Sequence of His-tagged recombinant c-Jun (P05412 whole entry): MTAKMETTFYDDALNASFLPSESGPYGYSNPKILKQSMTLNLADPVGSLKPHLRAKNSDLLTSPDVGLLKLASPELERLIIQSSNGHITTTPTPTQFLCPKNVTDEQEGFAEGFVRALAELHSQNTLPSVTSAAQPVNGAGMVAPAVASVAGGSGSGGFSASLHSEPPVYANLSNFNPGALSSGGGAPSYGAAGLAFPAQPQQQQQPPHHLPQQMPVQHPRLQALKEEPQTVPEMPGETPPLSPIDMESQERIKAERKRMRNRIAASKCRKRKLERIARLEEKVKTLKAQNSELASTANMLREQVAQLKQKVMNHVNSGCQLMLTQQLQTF

Sequence of c-Jun (P05412 whole entry): as above

Consider `CC[C@]1(O)C[C@@H]2CN(CCc3c([nH]c4ccccc34)[C@@](C(=O)OC)(c3cc4c(cc3OC)N(C)[C@H]3[C@@](O)(C(=O)OC)[C@H](OC(C)=O)[C@]5(CC)C=CCN6CC[C@]43[C@@H]65)C2)C1` [Vinblastine], for which, in test [1], the p21 result is on record as “decrease in p21” and the “phosphorylated c-Jun” value is given as “increasing phosphorylated c-Jun”.

For `O=C1C(Cl)=C(N2CCOCC2)C(=O)N1c1ccc(Cl)c(Cl)c1` [RI-1], the “effect on efficiency of double stranded DNA break repair” value in test [2] is “little to no effect”.

B1: CAPER Peptide HCC1.3 (peptide)
peptide: Biotin-YGRKKRRQRRRRLQLMARLAEGTGLQIPPAAQQALQMSGSLAFGAVADLQTRLSQQ
In the case of B1, the Kd in test [3] was found to be 8.89 nM.

B2: CAPER Peptide HCC1.4 (peptide)
peptide: Biotin-YGRKKRRQRRRRLQLMARLAEGTGLQIPPAAQQALQMSGSLAFGAVAEFSFVIDLQ
As to B2, in test [3], the Kd came to 25.6 nM.
